The results in this text go back to article PMC10682503, “Structural and functional basis of inositol hexaphosphate stimulation of NHEJ through stabilization of Ku-XLF interaction” (Nucleic Acids Research, 2023).

Experiment [1] has as its target Ku-DNA interaction (Homo sapiens, UniProt P12956+P13010). Description: Single-molecule colocalization (TIRF) of Ku-AF647 on 18 bp DNA. Format: binding. The note with it: IP6 10 μM. As to the method:
Single molecule labelling, and flow channel preparation for single-molecule colocalization experiment are described in Supplemental Information. A single-molecule experiment was performed on a Total Internal Reflection Fluorescence (TIRF) microscope equipped with an inverted oil immersion objective (×100, 1.49 NA lens) coupled to 532 nm (Ultra-Laser, MGL-FN-532) and 639 nm (Ultra-Laser, MGL-FN-639) excitation lasers to excite the sample at TIRF illumination. A dichroic beam splitter (Semrock, Di03-635-t1) was used to split green and red signals, which were passed through narrow bandpass filters (Semrock, FF01-582/64 and FF01-680/42). The signals were collected by an electron-multiplying charge-coupled device (EM-CCD) (Andor, iXon897). Fluorescence beads (Invitrogen, Life Technologies Corporation, Eugene, OR) were used to map corresponding signals in green and red channels.
The BSA in the flow channel was washed with T50 buffer. […] Movies of 1 000 frames (33 Hz) were recorded with the red laser and both lasers turned on for the first 900 frames and last 100 frames, respectively. Four independent experiments were performed where at least 20 movies were recorded for each experimental condition. […]
Fluorescent labelling of Ku. […] The labelled protein was determined to have 50 % labelling efficiency, spectrophotometrically. […]

Experiment [2] concerns the target T1, KuΔC (Ku heterodimer deleted of its C-terminal regions) (Homo sapiens, UniProt P12956+P13010).
T1 construct: heterodimer deleted of its C-terminal region (Ku70 1–544, Ku80 1–551); His-tag (10x His with TEV site, same vector as KuFL) (N); made in house; host or cells: Sf21 insect cells
Description: ITC, KuΔC with IP6. It is filed as binding. The method, then: Purification of Ku full-length (KuFL) for cryo-EM experiments was carried out as described previously ([5]). Expression and purification of KuFL for biophysical experiments was carried out as described previously ([20]). The full-length human Ku heterodimer subunits (Ku70 1–609, Ku80 1–732) were cloned into a Multibac vector ([21]). The construct has a 10× His-tag and a TEV site on the N-terminus of Ku80 and no-tag on Ku70. Protein production was initiated in Sf21 cells by infection with the baculovirus stock at MOI of 5 × 10^−3 and cells were collected 5–6 days after the infection (3–4 days after the proliferation arrest). Cells were sonicated and the supernatant was incubated with Benzonase (300 units for 30 min at 4°C). The Ku heterodimer was purified on a NiNTA-Agarose affinity column (Protino, Macherey Nagel) with a 1 M NaCl wash step to remove DNA excess. The eluted Ku was then bound onto an anion exchange column (Resource Q, Cytiva) equilibrated in 20 mM Tris pH 8.0, 50 mM NaCl, 50 mM KCl, 10 mM β-mercaptoethanol and eluted with a salt gradient. […]
Calorimetry. Interactions between KuFL and inositol phosphates (IPs) (IP6 and IP6 analogues) were determined by Isothermal Titration Calorimetry (ITC) using a VP-ITC calorimeter (Malvern). […] The free energy of binding (ΔG) and the entropy (ΔS) were determined using the classical thermodynamic formula, ΔG = - RT ln(Ka) and ΔG = ΔH - TΔS. […]

SMILES strings stand for the structures.

T1 sequence (P12956 1-544, stated change not applied): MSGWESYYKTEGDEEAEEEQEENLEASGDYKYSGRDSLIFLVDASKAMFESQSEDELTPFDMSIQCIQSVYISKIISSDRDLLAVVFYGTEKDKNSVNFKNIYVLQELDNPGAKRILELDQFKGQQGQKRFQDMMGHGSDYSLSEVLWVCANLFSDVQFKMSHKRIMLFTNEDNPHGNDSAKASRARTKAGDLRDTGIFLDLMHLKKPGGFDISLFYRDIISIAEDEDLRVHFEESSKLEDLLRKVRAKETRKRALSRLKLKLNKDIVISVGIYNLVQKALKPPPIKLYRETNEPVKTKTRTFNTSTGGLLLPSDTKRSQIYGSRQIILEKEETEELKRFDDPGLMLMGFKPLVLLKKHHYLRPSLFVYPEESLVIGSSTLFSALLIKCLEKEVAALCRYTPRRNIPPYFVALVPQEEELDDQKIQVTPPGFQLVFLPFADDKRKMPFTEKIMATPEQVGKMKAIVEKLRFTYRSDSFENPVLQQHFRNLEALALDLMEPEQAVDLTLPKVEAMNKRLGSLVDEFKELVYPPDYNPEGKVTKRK
T1 sequence (P13010 1-551, stated change not applied): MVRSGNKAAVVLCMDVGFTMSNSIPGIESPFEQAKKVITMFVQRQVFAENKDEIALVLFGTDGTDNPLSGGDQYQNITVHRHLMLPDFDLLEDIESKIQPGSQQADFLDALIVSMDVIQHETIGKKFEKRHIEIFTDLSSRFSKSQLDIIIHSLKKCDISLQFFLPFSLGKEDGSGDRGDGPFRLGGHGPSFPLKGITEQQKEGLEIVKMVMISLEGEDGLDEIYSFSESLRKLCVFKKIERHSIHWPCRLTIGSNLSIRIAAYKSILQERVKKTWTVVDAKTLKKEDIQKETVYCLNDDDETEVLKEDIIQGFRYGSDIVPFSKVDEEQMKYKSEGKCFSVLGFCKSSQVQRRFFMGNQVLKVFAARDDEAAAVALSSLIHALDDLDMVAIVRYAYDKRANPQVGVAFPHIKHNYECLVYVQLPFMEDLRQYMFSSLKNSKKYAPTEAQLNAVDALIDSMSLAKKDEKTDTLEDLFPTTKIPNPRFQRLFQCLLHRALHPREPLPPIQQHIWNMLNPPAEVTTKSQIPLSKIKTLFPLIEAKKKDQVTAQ
Ku-DNA interaction, sequence (P12956 whole entry): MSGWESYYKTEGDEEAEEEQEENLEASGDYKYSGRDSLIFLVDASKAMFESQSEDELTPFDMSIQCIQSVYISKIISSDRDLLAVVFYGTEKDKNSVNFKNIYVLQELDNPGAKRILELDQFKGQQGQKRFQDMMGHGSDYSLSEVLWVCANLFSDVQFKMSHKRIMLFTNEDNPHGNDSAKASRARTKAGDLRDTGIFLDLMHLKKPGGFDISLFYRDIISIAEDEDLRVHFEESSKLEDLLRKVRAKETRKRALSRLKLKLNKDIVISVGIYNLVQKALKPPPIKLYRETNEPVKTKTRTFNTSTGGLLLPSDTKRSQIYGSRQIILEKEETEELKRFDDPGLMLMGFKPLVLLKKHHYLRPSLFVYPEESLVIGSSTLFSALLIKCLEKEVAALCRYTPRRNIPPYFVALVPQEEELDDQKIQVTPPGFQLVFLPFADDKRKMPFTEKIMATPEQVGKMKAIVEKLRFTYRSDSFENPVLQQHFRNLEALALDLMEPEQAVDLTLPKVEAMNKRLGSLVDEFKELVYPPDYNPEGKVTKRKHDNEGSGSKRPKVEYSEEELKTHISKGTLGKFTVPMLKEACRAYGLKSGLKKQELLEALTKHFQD
Ku-DNA interaction, sequence (P13010 whole entry): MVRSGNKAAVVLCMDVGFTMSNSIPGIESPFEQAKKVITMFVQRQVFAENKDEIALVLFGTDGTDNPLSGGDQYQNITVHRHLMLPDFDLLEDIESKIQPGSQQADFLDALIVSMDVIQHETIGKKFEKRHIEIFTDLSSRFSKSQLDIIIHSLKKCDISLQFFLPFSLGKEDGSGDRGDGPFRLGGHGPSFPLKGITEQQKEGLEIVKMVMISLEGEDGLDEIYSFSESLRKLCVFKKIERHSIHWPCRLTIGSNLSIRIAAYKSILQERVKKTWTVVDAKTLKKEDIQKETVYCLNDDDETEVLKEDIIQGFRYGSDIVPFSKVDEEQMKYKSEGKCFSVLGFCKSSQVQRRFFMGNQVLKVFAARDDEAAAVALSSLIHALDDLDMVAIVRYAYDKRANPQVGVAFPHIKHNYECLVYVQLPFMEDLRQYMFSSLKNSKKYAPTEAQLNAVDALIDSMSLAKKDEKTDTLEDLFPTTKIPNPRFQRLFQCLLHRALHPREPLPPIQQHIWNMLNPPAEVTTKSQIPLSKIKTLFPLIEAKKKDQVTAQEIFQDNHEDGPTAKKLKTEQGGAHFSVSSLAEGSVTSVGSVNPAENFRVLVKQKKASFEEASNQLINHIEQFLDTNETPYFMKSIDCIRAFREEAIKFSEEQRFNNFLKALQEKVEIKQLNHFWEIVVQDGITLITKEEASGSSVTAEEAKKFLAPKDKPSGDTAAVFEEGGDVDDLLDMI

As to `O=P(O)(O)O[C@H]1[C@H](OP(=O)(O)O)[C@@H](OP(=O)(O)O)[C@H](OP(=O)(O)O)[C@@H](OP(=O)(O)O)[C@H]1OP(=O)(O)O` [IP6, inositol hexaphosphate], in experiment [1], the “kinetic dissociation constant (kOFF) of Ku from dsDNA” value is on record as “decreases” and the “residence times of Ku on DNA” value was “slightly increases”. The “weaker affinity of KuΔC compared with KuFL” value in experiment [2] was approximately 50 fold. The molecule also registered a dissociation constant Kd in experiment [2] (KuΔC construct) of 178 ± 12 nM.
